# Measurements from patent publication US9296688B2, “Carbohydrate-selective receptors” (New York University, priority 2012, dated 2016).
# “And” between values parts separate entries of the source, which are not always exact repeats. Identical values can stand only once. Like-named read-outs stand apart in the source and are kept apart here.
# Key:
# [1] = Method: Note that all equilibria present in a receptor/pyranoside mixture contribute toward the calculated BC50 value, and a higher 1/BC50 value is indicative of a higher overall binding strength.
# As each 1/BC50 plot is a measure of affinity between 1 and pyranosides, comparing the plots of two or more pyranosides provides a means of assessing selectivity.
# The BC50^0 values of the pyranosides for receptor 1 were determined using Eq. 17.
# Remark: listed apart in the source
# [2] = not given; remark: listed apart in the source
# [3] = CDCl3, 25° C., extrapolated from a Van't Hoff plot
# Procedure: (§1) ^1H NMR titrations were performed in CDCl3 at a field strength of either 500, 800, or 900 MHz at 25, 20, 15, 10, or 5° C. The ^1H NMR resonances corresponding to both pyranoside and host were assigned through ^1H-^1H COSY and NOESY experiments.
# (§2) This is the result of an exchange process involving 1 (H) and pyranoside (G) equilibria products exchanging fast on the NMR timescale, resulting in the averaging of chemical shifts of protons in differing chemical environments.
# (§3) Fittings were conducted in Microsoft Excel 2007 using the Solver feature. […]
# Thus, the binding of pyranosides was first studied under conditions where receptor 1 was maintained at a low concentration (<70 μM) to minimize the contribution of the Kdimer and K3 equilibria (FIG. 2). Once the values of K1 and K2 were determined, their values were held invariant in subsequent peak shift fittings, which facilitated the quantification of the other Kas.
# (§4) For each non-mannoside, K1 was determined by subjecting all resolvable resonances from each titration at 25° C. to a global nonlinear fitting analysis with a model combining K1 and Kdimer (13.0±0.5 M^−1), which was measured independently by ^1H NMR dilution experiments (Table 1). […]
# [4] = 1/BC50 plot, pyranoside 0 to 10.0 mM
# Procedure: as §1, §2, §3
# Thus, the binding of pyranosides was first studied under conditions where receptor 1 was maintained at a low concentration (<70 μM) to minimize the contribution of the Kdimer and K3 equilibria (FIG. 2). Once the values of K1 and K2 were determined, their values were held invariant in subsequent peak shift fittings, which facilitated the quantification of the other Kas. […]
# as §4
# [5] = 1:2 binding (K2), CDCl3, Van't Hoff
structure (smiles),measurement,setting,value
"c1c[nH]c(CNCc2cc(CNCc3ccc[nH]3)cc(-c3cc(CNCc4ccc[nH]4)cc(CNCc4ccc[nH]4)c3)c2)c1 [Compound 1, N,N′,N′N″N′″-([1,1′-biphenyl]-3,3′,5,5′-tetrayltetrakis(methylene))tetrakis (1-(1H-pyrrol-2-yl)methanamine)]",binding order,[1]; higher pyranoside concentrations (>1.0 mM),α-Man>β-Man>β-Glc
same,binding order,[1]; pyranoside from 0.3 mM to 1.0 mM,α-Man>β-Glc>β-Man
same,Kdimer,"CDCl3, 5° C.",24.2 ± 0.5 M⁻¹
same,Kdimer,"CDCl3, 10° C.",20.8 M⁻¹
same,Kdimer,"CDCl3, 15° C.",16.9 M⁻¹
same,Kdimer,"CDCl3, 20° C.",15.3 M⁻¹
same,Kdimer,"CDCl3, 25° C.",13.0 M⁻¹ and 13.0 ± 0.5 M⁻¹
same,ΔH°,[2]; [5],-84.5 ± 5.02 kJ/mol
same,ΔS°,[2]; [5],−52±4 e.u.
same,interaction parameter α for K3 (K3 / reference Ka),"[2]; 2:1 binding, 25° C.",at least 2.7
same,"approximate baseline (reference) Ka, 1:1 binding of 1 to the β-face of β-Man","[2]; from NMR detection limit, no NOEs on β-face, 0.5 mM 1, 1.0 mM β-Man, 25° C.",≤ 104 M⁻¹
same,K3 (2:1 receptor:pyranoside binding),[3],3 M⁻¹
same,concentration of α-Man where the maximum 1/BC50 value (maximum selectivity) is obtained,[4],0.8 mM
